Each structure is given as a SMILES string. The source made the active and inactive calls.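 The calls were made as follows: active = compounds giving half or more protection of infected cells from virus-caused growth loss, again on retest; inactive = the rest.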

The test system of this assay is CEM cells HIV-1 protection, formazan growth assay. Description: NCI AIDS Antiviral Assay. The conditions noted are these: for IC50: measured here: growth of uninfected CEM cells. The procedure, abridged:
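Protection of CEM cells against HIV-1 measured as cell growth via soluble formazan read-out, with five concentrations tested on both infected and uninfected cells; failure to protect may reflect toxicity.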

The term EC50 denotes the concentration giving half of the maximal effect. A word on the IC50: it is the concentration needed to halve the response being measured. Lower therefore signals greater potency. Take `O=c1oc2ccccc2cc1-n1nnc2cc([N+](=O)[O-])ccc21`: the EC50 is more than 8.91 µM and the IC50 is more than 8.91 µM.

Turning to `C=C1C(=O)OC2CC(C)C(C(O)CC(C)O)=CCC12` (stereo not given), the EC50 is more than 447 µM and the IC50 stood at 8.32 µM.

Take `C[C@H]1Oc2c3c(c4c(c2C(=O)[C@@H]1C)OCC=C4)OCC=C3`: the EC50 is more than 200 µM and the IC50 is 89.1 µM.

For the compound `COc1cc(C(=O)NC2CCc3cc(OC)c(OC)c(OC)c3-c3ccc(OC)c(=O)cc32)cc(OC)c1OC` (stereo not given), the EC50 is more than 0.2 µM and the IC50 came to 0.0661 µM.

Take `COc1cc(CN(C)N2C(=O)c3cccc4cc([N+](=O)[O-])cc(c34)C2=O)cc(OC)c1OC`: the outcome was inactive.

On to `COC(OC)C(O)C1OC=CC1n1cnc2c(N)ncnc21` (stereo not given), for which the EC50 is more than 200 µM and the IC50 is more than 200 µM.

Turning to `[CH3][Sn]([CH3])([S]CCS(=O)(=O)O)[S]CCS(=O)(=O)O`, the EC50 is more than 200 µM and the IC50 turned out to be 95.5 µM.

For `COc1cccc2c(SCC(=O)Nc3ccccc3-c3ccccc3NC(=O)CSc3c4ccccc4nc4c(OC)cccc34)c3ccccc3nc12`, the result was inactive.

With `COc1ccc2c(ccc3c(COC(=O)NC(C)C)c(COC(=O)NC(C)C)n(C)c32)c1`, the EC50 was more than 200 µM and the IC50 worked out at 0.112 µM.

As to `Cc1ccc(NC(=O)c2cc(S(=O)(=O)n3cc[nH]c3=O)c(S)cc2Cl)cc1`, the EC50 was more than 200 µM and the IC50 was more than 200 µM.

As to `CCCN(CCCCC(NC(C)=O)C(=O)NCc1ccccc1)C(=O)N(CCCl)N=O` (stereo not given), the EC50 was more than 79.4 µM and the IC50 was more than 79.4 µM.

For the compound `COc1cccc(NC(=O)CC(=O)N2N=C(N(CCC#N)c3ccccc3C)CC2c2ccccc2)c1` (stereo not given), the EC50 was more than 501 µM and the IC50 is more than 501 µM.

Consider `CCC(=O)NC(Nc1ccccc1F)(C(F)(F)F)C(F)(F)F`, for which the EC50 was more than 200 µM and the IC50 is more than 200 µM.

In the case of `N#CC12Cc3ccc4c(c3-c3cccc(c31)CCN2C(=O)c1ccccc1)OCO4` (stereo not given), the result was inactive.

Regarding `O=C1c2ccccc2C(=O)N1CC(CN1C(=O)c2ccccc2C1=O)(C(=O)OCc1ccccc1)C(=O)OCc1ccccc1`, the EC50 was more than 200 µM and the IC50 is more than 200 µM.

Regarding `COc1c(C(=O)NCCN(CCNC(=O)c2cccc(-c3cccc(C(=O)N(C)C)c3OC)c2OC)CCNC(=O)c2cccc(-c3cccc(C(=O)N(C)C)c3OC)c2OC)cccc1-c1cccc(C(=O)N(C)C)c1OC`, the result was inactive.

As to `O=C1CC2C(=O)NC(=O)C2C(=O)N1` (stereo not given), the EC50 is more than 1380 µM and the IC50 is more than 1380 µM.

Take `C=CCNC(=S)N/C=C(\C#N)c1nc2ccccc2s1`: the EC50 is more than 200 µM and the IC50 is more than 200 µM.

As to `CC(=O)Oc1ccc2ccccc2c1Br`, the EC50 is more than 200 µM and the IC50 worked out at 112 µM.

As to `Cc1c(/C=N/N=C/c2[nH]c(C(=O)OC(C)(C)C)c(C)c2C)[nH]c(C(=O)OC(C)(C)C)c1C`, the outcome was inactive.

As for `COc1csc([C@H]2CCC3[C@@H]4CC=C5C[C@@H](O)CC[C@]5(C)C4CC[C@@]32C)n1` (stereo not given in full), the EC50 was more than 17.4 µM and the IC50 is more than 17.4 µM.

As for `COC12OC3(C4OC41)C(C(=O)O[C@H]3CO[Si](C)(C)C(C)(C)C)C2S(=O)(=O)c1ccccc1` (stereo not given in full), the EC50 is more than 200 µM and the IC50 came to 129 µM.

In the case of `O=C(O)c1ccc(Nc2nc3ccccc3nc2-c2cccs2)cc1`, the EC50 was more than 200 µM and the IC50 amounted to 60.3 µM.

For the compound `COc1cccc2c1N(COC(C)=O)C(=O)C1C=CC(C)(C)OC21` (stereo not given), the EC50 was more than 100 µM and the IC50 worked out at 56.2 µM.

In the case of `CC1SC2=NC3=C(c4ccccc4C3=O)C(c3ccc(F)cc3)N2C1=O` (stereo not given), the EC50 is more than 37.2 µM and the IC50 is more than 37.2 µM.

In the case of `COC(=O)CCC(=O)c1ccc2c(c1)CC1(C2)Cc2ccc(C(=O)CCC(=O)OC)cc2C1`, the EC50 is more than 200 µM and the IC50 came to 42.7 µM.

With `COc1cc(C2c3cc4c(cc3OC(NNS(=O)(=O)c3ccc(C)cc3)C2C)OCO4)cc(OC)c1OC` (stereo not given), the EC50 is more than 20 µM and the IC50 is 0.372 µM.

As to `O=C1OC(=C(Cl)Cl)C2C3c4ccccc4C(c4ccccc43)C12` (stereo not given), the EC50 was more than 100 µM and the IC50 was determined as 47.9 µM.

For the compound `O=C1c2cccc3cc([N+](=O)[O-])cc(c23)C(=O)N1CCCN(CCO)CCO`, the result was inactive.

Regarding `COc1ccc(OC)c(-c2cn3c(n2)sc2ccccc23)c1`, the EC50 was more than 200 µM and the IC50 was 50.1 µM.

Regarding `CC[N+]1(C2=C([O-])C(F)(F)C2=O)CCCCC1`, the EC50 was more than 200 µM and the IC50 is more than 200 µM.

For the compound `Cc1ccc(S(=O)(=O)SS(=O)(=O)c2ccc(C)cc2)cc1`, the EC50 is 13.8 µM and the IC50 stood at 52.5 µM.

Consider `CC1=C(C(=O)Nc2ccccc2)C(c2ccc(C3C(C(=O)Nc4ccccc4)=C(C)NC(C)=C3C(=O)Nc3ccccc3)cc2)C(C(=O)Nc2ccccc2)=C(C)N1`, for which the EC50 was more than 12.9 µM and the IC50 came out at 2.4 µM.

On to `O=C1OC(c2ccccc2)(c2ccccc2)c2sccc21`, for which the EC50 is more than 24.5 µM and the IC50 is more than 24.5 µM.

On to `O=C(O)C1[S][Bi]([S]C(C(=O)O)C([S][Bi]2[S]C(C(=O)O)C(C(=O)O)[S]2)C(=O)O)[S]C1C(=O)O` (stereo not given), for which the EC50 was more than 1.32 µM and the IC50 is more than 1.32 µM.

For the compound `CC1CCC2C(C)C3C(CC4C5CC=C6CC(O)CCC6(C)C5CCC43COC(=O)c3ccccc3)N2C1` (stereo not given), the EC50 was more than 69.2 µM and the IC50 was more than 69.2 µM.

For `CN=C(NNc1ccc([N+](=O)[O-])cc1)P(=O)(OC(C)C)OC(C)C`, the EC50 was more than 7.24 µM and the IC50 was more than 7.24 µM.

In the case of `COc1cc(C2C(C(=O)Nc3ccccc3C)=C(C)NC(C)=C2C(=O)Nc2ccccc2C)ccc1O`, the EC50 is more than 363 µM and the IC50 was more than 200 µM.

Take `O=C(c1ccc(Cl)cc1)N(C(=S)N1CCN(c2ccccc2)CC1)C1CCCCC1`: the EC50 is more than 6.17 µM and the IC50 was more than 6.17 µM.

On to `CC1C=C(OC(=O)c2ccccc2)C(=O)C(n2cc(F)c(=O)[nH]c2=O)O1` (stereo not given), for which the result was inactive.

Regarding `COC1/C=C/OC2(C)Oc3c(C)c(O)c4c(O)c(c(CNCc5ccccc5)c(O)c4c3C2=O)NC(=O)/C(C)=C\C=C\C(C)C(O)C(C)C(O)C(C)C(OC(C)=O)C1C` (stereo not given), the EC50 is more than 200 µM and the IC50 was determined as 1.51 µM.

With `O=C1CCC(=O)c2cc(Br)ccc2N1`, the EC50 is more than 141 µM and the IC50 was more than 141 µM.

Consider `CC(=O)CC12NC(=O)N(C)N=C1N(C)C(=O)N(C)C2=O` (stereo not given), for which the EC50 was more than 200 µM and the IC50 came out at 10.7 µM.

`COc1cccc2c1CCc1sc(CN3CCN(C)CC3)nc1-2`: the EC50 is more than 200 µM and the IC50 turned out to be 30.2 µM.

For the compound `Nc1nc(Cl)cc(OCC2(CO)CC=CC2)n1`, the EC50 was more than 200 µM and the IC50 was 126 µM.

With `OCc1ccc2c(c1)CC1(Cc3ccc(/C=N/O)cc3C1)C2` (stereo not given), the EC50 was more than 200 µM and the IC50 stood at 0.891 µM.

Consider `N#C/C(=C(/Cc1ccc(F)cc1)NP(=O)(c1ccccc1)c1ccccc1)c1ccc(F)cc1`, for which the EC50 was more than 21.4 µM and the IC50 was more than 21.4 µM.

In the case of `Cc1ccc(C=NC23CC4CC(CC(C4)C2)C3)cc1`, the EC50 was more than 257 µM and the IC50 was more than 257 µM.

For the compound `C/C(=N\N=C(\N)SB(F)F)c1ccc2ccccc2c1`, the EC50 was more than 200 µM and the IC50 was 29.5 µM.

For `O=P1(c2ccccc2)c2ccccc2CCc2ccccc21`, the EC50 was more than 200 µM and the IC50 is 95.5 µM.

For `O=C(CC(=O)c1cccc([N+](=O)[O-])c1)C(=O)Nc1ccccc1`, the EC50 was more than 417 µM and the IC50 was more than 417 µM.

With `ClCc1ccc2ccc3ccc(CCl)nc3c2n1`, the EC50 was more than 200 µM and the IC50 is 1.51 µM.

For the compound `Cc1cc(N(CCC#N)CCC#N)ccc1/C(N=Nc1ccc(C(=O)O)cc1)=N\NC(=O)c1ccccc1`, the EC50 was more than 200 µM and the IC50 was determined as 13.5 µM.

`COc1cc(C(=O)CC(O)(C(F)(F)F)C(F)(F)F)cc(OC)c1OC`: the EC50 is more than 200 µM and the IC50 was more than 200 µM.

For the compound `CCCCC1C=Cn2c(=O)oc3c(OC(C)C)c(C)c(O)c1c32` (stereo not given), the EC50 was more than 200 µM and the IC50 amounted to 2.51 µM.

As for `CN1C(N)=NC(=O)/C1=C/c1ccccc1`, the EC50 was more than 200 µM and the IC50 amounted to 115 µM.

In the case of `Cc1cc(=O)[nH]c(NNC(C#N)c2c(O)ccc3ccccc23)n1` (stereo not given), the EC50 is more than 16.2 µM and the IC50 was determined as 1.07 µM.

As for `Cc1cn(C2CC(F)C(COC(=O)CCCCCCCCCCCBr)O2)c(=O)[nH]c1=O` (stereo not given), the EC50 is 0.024 µM and the IC50 came to 28.8 µM.

`Cc1ccc(N(C)S(=O)(=O)c2ccccc2)cc1`: the EC50 is more than 145 µM and the IC50 is 67.6 µM.

In the case of `CS1(C)=Nc2c([N+](=O)[O-])cc([N+](=O)[O-])cc2S(=O)(=O)N=1`, the EC50 was more than 112 µM and the IC50 is 58.9 µM.

In the case of `OCCCCOC(c1ccccc1)(c1ccccc1)c1ccccc1`, the EC50 is more than 15.8 µM and the IC50 is more than 15.8 µM.

Regarding `Oc1c(C2=N[C@H]3CCCC[C@@H]3N2)ccc2ccccc12`, the EC50 was more than 200 µM and the IC50 is more than 200 µM.

Consider `C[C@]12CC[C@H](O)C[C@@H]1CC[C@@H]1[C@@H]2CC[C@]2(C)c3nc4ccccc4cc3C[C@@H]12`, for which the EC50 was more than 200 µM and the IC50 is 8.13 µM.

In the case of `O=C(O)c1ccc2c(c1)CC1(C2)Cc2cc3c(cc2C1=O)CCC3` (stereo not given), the EC50 is more than 200 µM and the IC50 is 85.1 µM.

Regarding `CCc1c(O)n(Cc2nc3ccccc3[nH]2)c(=S)n(-c2ccccc2)c1=O`, the EC50 is more than 200 µM and the IC50 is more than 200 µM.

In the case of `O=C(C[P+](c1ccccc1)(c1ccccc1)c1ccccc1)c1ccc([N+](=O)[O-])cc1`, the EC50 is more than 200 µM and the IC50 worked out at 19.1 µM.

For `CSc1nc(Cl)c2c(n1)Sc1nc3cc4c(cc3n1C2O)OCO4` (stereo not given), the EC50 is more than 100 µM and the IC50 was 0.525 µM.

As to `OC(CCN1CCOCC1)c1ccc(Sc2ccccc2)cc1` (stereo not given), the EC50 was more than 200 µM and the IC50 came out at 36.3 µM.

On to `c1ccc(CC(c2ccccc2)N2CCOCC2)cc1` (stereo not given), for which the result was inactive.

Values taken from PubChem BioAssay AID179 (DTP/NCI, 2004).
